Patent US5376679A, “Bicyclic or tricyclic biocidal compounds” (Shell Internationale Research Maatschappij B.V., priority 1988, dated 1994)
Converted amounts (≈) assume the structure as drawn.

Legend:
[1] = tested on: Puccinia Recondita; assay: Direct protectant activity against wheat brown rust (Pr); assay type: in vivo; parameters: scale not given here; settings: foliar spray, 1 kg/ha, 10 days; activity grade 1 or 2, not defined
Experimental: (i) Activity Against Wheat Brown Rust (Puccinia Recondita; Pr) The test is a direct protectant one using a foliar spray. […] The plants are then sprayed with the test compound at a dosage of 1 kg/ha using a track sprayer as described under (a). Test compounds are applied as solutions or suspensions in a mixture of acetone and water (50:50 v/v) containing 0.04% surfactant ("TWEEN 20"--Trade Mark). 18-24 hours after treatment, the seedlings are inoculated by spraying the plants from all sides with an aqueous spore suspension containing about 10^5 spores/ml. For 18 hours after inoculation, the plants are kept in high humidity conditions at a temperature of 20°-22° C. Thereafter, the plants are kept in ambient glasshouse conditions, that is, in moderate relative humidity and at a temperature of 20° C. The disease is assessed 10 days after inoculation on the basis of the percentage of the plant covered by sporulating pustules compared with that on the control plants.

[2] = tested on: Plasmopara viticola; assay: Direct protectant activity against vine downy mildew (Pvp); assay type: in vivo; parameters: Pvp: direct protectant activity against vine downy mildew: scale not given here; settings: foliar spray, 1 kg/ha; activity grade 1 or 2, not defined
Excerpt: (a) Direct Protectant Activity Against Vine Downy Mildew (Plasmopara viticola; Pvp)
The test is a direct protectant one, using a foliar spray. The lower surfaces of leaves of whole vine plants (cv Cabernet Sauvignon) are sprayed with a solution of active material in 1:1 v/v water/acetone containing 0.04% w "Triton X-155" (trade mark) (octylphenol polyoxyethylene surfactant), at a dosage of 1 kilogram of active material per hectare using a track sprayer which delivers 620 liters/ha, and after a subsequent 24 hours under normal glasshouse conditions the lower surfaces of the leaves are inoculated by spraying with an aqueous solution containing 10^4 zoosporangia/ml. The inoculated plants are kept for 24 hours in a high humidity compartment, 5 days under normal glasshouse conditions and then returned for a further 24 hours to high humidity. Assessment is based on the percentage of leaf area covered by sporulation compared with that on control leaves.

[3] = tested on: Fusarium culmorum; assay: Activity against seedling wheat blight, soil drench (Fs); assay type: in vivo; parameters: scale not given here; settings: 10 kg/ha, 21 days, activity grade 1 or 2, not defined
Experimental: (d) Activity Against Seedling Wheat Blight (Fusarium culmorum; Fs)
The test is an anti-sporulant one using a soil drench. Surface sterilised wheat seeds (var Waggoner) are inoculated by soaking in an aqueous suspension containing 7×10^5 spores/ml (60 mg seed per 80 ml suspension) at 22° C. for 6 hours. The seeds are then sown in pots (5 per pot) in sand at a depth of 1 cm. 1 day after inoculation and planting the active material is applied at a rate of 10 kg/ha by pouring on a soil drench (concentration 0.36 g/l active material in 12% v/v acetone/water) evenly over the sand. The pots are then transferred to a glasshouse, kept at 25° C. and watered sparingly. 21 days after inoculation the resulting seedlings are removed from the pots and their roots are gently washed. Visual assessment is made based on lesion development on stem base and upper roots in comparison with control seedlings.

[4] = tested on: Leptosphaeria nodorum; assay: Direct antisporulant activity against wheat leafspot (Ln); assay type: in vivo; parameters: scale not given here; settings: foliar spray, 1 kg/ha; activity grade 1 or 2, not defined
Experimental: (e) Activity Against Wheat Leafspot (Leptosphaeria nodorum; Ln) The test is a direct antisporulant one, using a foliar spray. Leaves of wheat plants ([…]), at the single leaf stage, are inoculated by spraying with an aqueous suspension containing 8×10^5 spores/mi. The inoculated plants are kept for 24 hours in a high humidity compartment prior to treatment. […] After drying, the plants are kept for 5 days under normal glasshouse conditions, followed by assessment. Assessment is based on the percentage of leaf area covered by sporulation compared with that on leaves of control plants.

[5] = tested on: Pseudocercosporella herpotrichoides; assay: In vitro activity against wheat eyespot (Ph); assay type: cell-based; parameters: Ph: activity against wheat eyespot: scale not given here; settings: in vitro, 100 ppm in agar, 11 days; activity grade 1 or 2, not defined
Experimental: (c) Activity Against Wheat Eyespot (Pseudocercosporella herpotrichoides; Ph)
The test is an in vitro one. Samples are prepared wherein 0.7 mls solution containing 2 mg active material dissolved in acetone is evenly dispersed in 20 ml molten half-strength potato dextrose agar (formed by dissolving 2 g potato extract, 10 g dextrose and 7.5 g agar in 1 liter of water and sterilising for 15 minutes and 121° C.) and the resulting 20 ml portions are allowed to set in 9 cm petri dishes. The concentration of active material in the resulting samples is 100 ppm. Upon setting, two plugs of 5 mm diameter taken from the advancing edge of a stock plate of a 3 to 4 week old culture of P.herpotrichoides on full strength potato dextrose agar, incubated at 20°-22° C. in darkness, are placed, equally spaced on the surface of each sample, mycelial side uppermost. The samples are incubated for 11 days at 20°-22° C. in darkness before assessment. Diametric growth is measured with the width of the plug subtracted and results compared with growth on a sample wherein 0.7 ml acetone containing no active material is dispersed in 20 ml half-strength potato agar.

[6] = tested on: Alternaria Solani; assay: Direct protectant activity against tomato early blight (As); assay type: in vivo; parameters: As: activity against tomato early blight: scale not given here; settings: foliar spray as under (a), 8 days; activity grade 1 or 2, not defined; also: dose 1000 g/ha
Experimental: (g) Activity Against Tomato Early Blight (Alternaria Solani; As). The test is a direct protectant one using a foliar spray. The upper surfaces of leaves of young tomato plants are sprayed with a solution of active material as described in (a) above. After 24 hours under normal glasshouse conditions, the upper surfaces of the leaves are inoculated by spraying with an aqueous suspension containing 10^4 spores/ml. The inoculated plants are kept for 72 hours in a high humidity compartment and are then removed to lower humidity (50-70% relative humidity). Assessment is made 8 days after inoculation.

[7] = tested on: Erysiphe graminis f.sp. hordei; assay: Direct antisporulant activity against barley powdery mildew (Eg); assay type: in vivo; parameters: scale not given here; settings: foliar spray, 1 kg/ha; activity grade 1 or 2, not defined
Excerpt: (f) Activity Against Barley Powdery Mildew (Erysiphe graminis f.sp. hordei; Eg) The test is a direct antisporulant one, using a foliar spray. Leaves of barley seedlings, cultivar Golden Promise, are inoculated by dusting with mildew conidia one day prior to treatment with the test compound. The inoculated plants are kept overnight at glasshouse ambient temperature and humidity prior to treatment. […] After drying, plants are returned to a compartment at ambient temperature and humidity for up to 7 days, followed by assessment. Assessment is based on the percentage of leaf area covered by sporulation compared with that on leaves of control plants.

[8] = tested on: Cladosporium resinae; assay: Minimum inhibitory concentration, Cladosporium resinae (Cr); assay type: cell-based; settings: Amorphotheca resinae, 30° C., 3, 7 and 10 days
Experimental: (§1) Inocula of the fungi Aspergillus niger, Cladosporium resinae and Chaetomium globosum were prepared containing 5×10^5 conidia/ml in a potato dextrose broth. The potato dextrose broth was prepared by suspending 4 g potato extract and 20 g dextrose in 1 liter of distilled water, warming to achieve solution, separating into aliquots and sterilising by autoclaving at 121° C. for 15 minutes.
(§2) Test procedures were as follows:
(§3) (ii) Dilution Series for Other Test Bacteria, Yeast and Filamentous Fungi
(§4) Dilution series from the stock solution of each compound were prepared in sterile distilled water. These contained 50, 100, 500 and 1000 ppm compound. To duplicate wells of a compartmentalised square petri dish 0.3 ml of each test compound concentration was added together with 2.7 ml of one of the microbial inocula described above. This gave final concentrations of the test compound of 5, 10, 50 and 100 ppm.
(§5) After incubation, in the dark, at 30° C. the wells were examined for the presence or absence of growth. Bacterial and yeast cultures were examined after 24 hours and 72 hours incubation and the fungi cultures after 3, 7 and 10 days.
(§6) By means of the above tests minimum inhibitory concentrations were determined for the various test compounds.

[9] = tested on: Bacillus subtilis; assay: Minimum inhibitory concentration, Bacillus subtilis (Bs); assay type: cell-based; settings: 30° C., 24 and 72 hours
Experimental: (§7) In respect of S. aureus, B. subtilis and E. coli, the microorganisms were cultured in 50 ml aliquots of a tryptone soya broth in 250 ml conical flasks at 30° C. on a rotary shaker at 200 rpm for 24 hours. Tryptone soya broth was prepared by adding 17 g pancreatic digest of casein, 3 g […] digest of soyabean meal, 5 g of sodium chloride, 2.5 g of dipotassium hydrogen phosphate and 2.5 g of dextrose to 1 liter of distilled water, mixing and sterilising by autoclaving at 121° C. for 15 minutes. 1 ml aliquots of the resulting cultures were mixed with 99 ml of fresh tryptone soya broth and used as inocula for tests. […] Test procedures were as follows: (ii) Dilution Series for Other Test Bacteria, Yeast and Filamentous Fungi Dilution series from the stock solution of each compound were prepared in sterile distilled water. These contained 50, 100, 500 and 1000 ppm compound. To duplicate wells of a compartmentalised square petri dish 0.3 ml of each test compound concentration was added together with 2.7 ml of one of the microbial inocula described above. […] After incubation, in the dark, at 30° C. the wells were examined for the presence or absence of growth. Bacterial and yeast cultures were examined after 24 hours and 72 hours incubation and the fungi cultures after 3, 7 and 10 days. By means of the above tests minimum inhibitory concentrations were determined for the various test compounds.

[10] = tested on: Saccharomyces cerevisiae; assay: Minimum inhibitory concentration, yeast (Sc); assay type: cell-based, Saccharomyces cerevisiae (ATCC 9763); settings: 30° C., 24 and 72 hours
Experimental: Inocula of S. cerevisiae were prepared as for S. aureus, B. subtilis and E. coli, but using yeast malt broth in place of the typtone soya broth. The yeast malt broth was prepared by suspending 3 g yeast extract, 3 g malt extract, 5 g peptone and 10 g dextrose in 1 liter of distilled water, warming to achieve solution and sterilising by autoclaving at 121° C. for 15 minutes.
as §2, §3, §4, §5, §6

[11] = tested on: Desulfovibrio sp.; assay: Minimum inhibitory concentration, sulphate-reducing bacteria (Dsp); assay type: cell-based; settings: 30° C., 2, 5 and 10 days
Experimental: The sulphate reducing bacteria Desulfovibrio sp. were cultured in a modified Postgate's Medium B for 48 hours at 30° C. and used directly as an inoculum. The modified Postgate's Medium B consisted of 0.5 g dipotassium hydrogen phosphate, 1 g ammonium chloride, 1 g sodium sulphate, 5 g sodium lactate, 1 g yeast extract, 0.1 ml thioglycolic acid, 0.1 ml ascorbic acid, 0.5 g ferrous sulphate heptahydrate, 750 ml aged seawater and 250 ml distilled water, pH adjusted to 7.8, divided into aliquots and sterilised by autoclaving at 121° C. for 15 minutes. […] Test procedures were as follows: (i) Suphate-reducing Bacteria Test Dilution Series Duplicate aliquots (9.9 ml) of dilution series from the stock solutions of each compound were prepared in a modified Postgate's Medium B described above. These contained 100 ppm compound. These were then inoculated with 0.1 ml of inoculum. After incubation at 30° C., the presence or absence of growth--as indicated by a blackening of the medium due to ferrous sulphide production--was recorded at 2, 5 and 10 days. […] By means of the above tests minimum inhibitory concentrations were determined for the various test compounds.

[12] = tested on: Botrytis cinerea; assay: Direct protectant activity against vine grey mould (Bcp); assay type: in vivo; settings: foliar spray, 1 kg/ha; activity grade 1 or 2, not defined
Excerpt: (b) Direct Protectant Activity Against Vine Grey Mould (Botrytis cinerea; Bcp) The test is a direct protectant one using a foliar spray and is effected as described under (a), with the difference that the leaves are inoculated by spraying with an aqueous solution containing 10^5 conidia/ml.

[13] = tested on: Staphylococcus aureus; assay: Minimum inhibitory concentration, Staphylococcus aureus (Sa); assay type: cell-based, Staphylococcus aureus (NCIB 6571); settings: 30° C., 24 and 72 hours
Experimental: as §7

[14] = tested on: Chaetomium globosum; assay: Minimum inhibitory concentration, Chaetomium globosum (Chg); assay type: cell-based; settings: 30° C., 3, 7 and 10 days
Experimental: as §1, §2, §3, §4, §5, §6

[15] = tested on: Escherichia coli; assay: Minimum inhibitory concentration, Escherichia coli (Ec); assay type: cell-based, Escherichia coli (NCIB 9517); settings: 30° C., 24 and 72 hours
Experimental: as §7

[16] = tested on: Aspergillus niger; assay: Minimum inhibitory concentration, Aspergillus niger (An); assay type: cell-based, Aspergillus niger (CMI 17454); settings: 30° C., 3, 7 and 10 days
Experimental: as §1, §2, §3, §4, §5, §6

Structure (SMILES) | Pr: activity against wheat brown rust [1] | Pvp: direct protectant activity against vine downy mildew [2] | Fs: activity against seedling wheat blight [3] | Ln: activity against wheat leafspot [4] | Ph: activity against wheat eyespot [5] | As: activity against tomato early blight [6] | Eg: activity against barley powdery mildew [7] | MIC [8] [µg/mL] | MIC [9] [µg/mL] | MIC [10] [µg/mL] | MIC [11] [µg/mL] | Bcp: direct protectant activity against vine grey mould [12] | MIC [13] [µg/mL] | MIC [14] [µg/mL] | MIC [15] [µg/mL] | MIC [16] [µg/mL]
Cc1cc2c(c([N+]([O-])=NC#N)c1)OC(C)(C)C2 [Example 7] | 2 | 2 | 1 | 1 | 1 |  |  |  |  |  |  |  |  |  |  | 
COC(=O)N=[N+]([O-])c1cc(C)cc2c1OC(C)C2 (stereo not drawn) [Example 45] |  | 1 |  |  |  | 1 | 2 |  |  |  |  |  |  |  |  | 
Cc1cc2c(F)ccc([N+]([O-])=NC#N)c2o1 [Example 22] |  |  | 2 |  | 2 |  | 2 | 10 to 25 (≈ 45.6 to 114 µM) | 50 to 100 (≈ 228 to 456 µM) | 25 (≈ 114 µM) | 50 (≈ 228 µM) | 1 | > 100 | 5 (≈ 22.8 µM) | > 100 | 10 (≈ 45.6 µM)
CCCCc1cc2cccc([N+]([O-])=NC#N)c2o1 [Example 20] | 1 |  | 2 | 1 |  |  |  | 100 (≈ 411 µM) | > 100 | > 100 | > 100 |  | > 100 |  | > 100 | 100 (≈ 411 µM)
N#CN=[N+]([O-])c1cccc2cc(-c3ccccc3)oc12 [Example 21] |  |  |  |  |  |  |  |  |  |  |  | 1 |  |  |  | 
Cc1ccc([N+]([O-])=NC#N)c2c1CC(C)(C)O2 [Example 3] |  | 2 | 1 | 1 | 2 | 1 |  |  |  |  |  | 1 |  |  |  | 
CCc1cc2cccc([N+]([O-])=NC#N)c2o1 [Example 19] | 2 |  | 1 |  | 1 | 2 | 1 |  |  |  |  |  |  |  |  | 
CC1(C)Cc2cccc([N+]([O-])=NC#N)c2O1 [Example 2] |  | 1 | 2 |  | 2 |  |  |  |  |  |  | 2 |  |  |  | 
N#CN=[N+]([O-])c1ccc2oc3c(c2c1)CCCC3 [Example 24] | 1 | 2 | 1 |  | 1 | 2 |  |  |  |  |  |  |  |  |  | 
